# From patent publication US8343959B2, “N-phenyl-(piperazinyl or homopiperazinyl)-benzenesulfonamide or benzenesulfonyl-phenyl-(piperazine or homopiperazine) compounds suitable for treating disorders that respond to modulation of the serotonin 5-HT6 receptor” (Abbott GmbH & Co. KG, priority 2009, dated 2013)
# pKi: −log10 of the molar value. Structures can show the parent of a compound that is named as a salt. Where two headings read alike, the source gives them in different places.
# Molecular target: T1, h-5-HT6 receptor (Homo sapiens, UniProt P50406)
# T1 construct: expressed in transfected cells
# T1 sequence (P50406 whole entry): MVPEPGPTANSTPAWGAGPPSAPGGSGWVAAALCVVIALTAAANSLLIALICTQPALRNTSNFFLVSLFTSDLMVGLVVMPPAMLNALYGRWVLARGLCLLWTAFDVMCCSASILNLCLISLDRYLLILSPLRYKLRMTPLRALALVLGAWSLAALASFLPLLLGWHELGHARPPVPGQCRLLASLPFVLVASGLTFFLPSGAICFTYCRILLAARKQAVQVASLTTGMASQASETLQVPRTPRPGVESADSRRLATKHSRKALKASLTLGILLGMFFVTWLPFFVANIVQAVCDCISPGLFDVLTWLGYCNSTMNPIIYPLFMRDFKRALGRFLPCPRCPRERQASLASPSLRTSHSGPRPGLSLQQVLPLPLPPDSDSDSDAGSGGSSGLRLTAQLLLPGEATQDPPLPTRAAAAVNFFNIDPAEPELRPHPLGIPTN
# Assay: 5-HT6 receptor binding assay (displacement of [3H]-LSD)
# Protocol: Displacement of Radioligands Binding to The Following Cloned Human Receptors
# Cells from stable clonal cell lines expressing the corresponding receptor (5-HT6, α1-adrenergic, dopamine D2 or histamine H1 receptors) were washed with PBS (w/o Ca^++, Mg^++) and harvested in PBS with 0.02% EDTA. The cells were collected by centrifugation at 500 g for 10 min. at 4° C., washed with PBS and centrifuged (500 g, 10 min. 4° C.). The pellets were stored at −80° C. until use. For membrane preparation, the thawed cell pellet was resuspended in ice-cold sucrose buffer (0.25 M sucrose, 10 mM Hepes (pH 7.4), 1 mM Phenylmethylsulfonyl fluoride (PMSF) in DMSO, 5 μg/ml Pepstatin-A, 3 mM EDTA, 0.025% Bacitracin) and homogenized with a Branson Sonifier W-250 (Settings: Timer 4; Output Control 3; Duty Cycle constant; 2 to 3 cycles). Cell disruption was checked with the aid of a microscope. Remaining unbroken cells were pelleted at 1.000 g for 10 min. at 4° C. The sucrose buffer supernatant was then centrifuged at 60.000 g for 1 h at 4° C. (Beckman Ultrazentrifuge XL 80). The pellet was resuspended in 30 ml ice-cold Tris buffer (20 mM TRIS (pH 7.4), 5 μg/ml Pepstatin A, 0.1 mM PMSF, 3 mM EDTA) by pipetting through a 10 ml serological pipet and centrifuged for 1 h at 4° C. at 60.000 g. A final resuspension was performed in a small volume of ice-cold Tris buffer (see above) by pressing through a serological pipet followed by ultrasonic treatment with a Branson Sonifier W-250 (Settings: Timer 1; Output Control 3; Duty Cycle constant; 1 cycle). Protein concentration was determined (BCA-Kit; Pierce) and aliquots stored at −80° C. or in liquid nitrogen for long-term storage.
# All receptor binding experiments were carried out in the corresponding assay buffer in a total volume of 200 μl in the presence of various concentrations of test compound (10^−5 M to 10^−9 M, tenfold serial dilution, duplicate determinations). The assays were terminated by filtration on polyethylenimine (PEI 0.1% or 0.3%) presoaked Packard Unifilter Plates (GF/C or GF/B) with a Tomtec Machin U 96 well-plate harvester. After the plates had been dried for 2 h at 55° C. in a drying chamber scintillation cocktail (BetaPlate Scint; PerkinElmer) was added. Radioactivity was measured in a Microbeta Trilux two hours after the addition of the scintillation mixture. Data derived from liquid scintillation counting were analysed by iterative non-linear regression analysis with the use of the Statistical Analysis System (SAS): a program similar to “LIGAND” as described by Munson and Rodbard (Analytical Biochemistry 107, 220-239 (1980).
# HEK293 cells stably expressing the h-5-HT6 receptor (NCBI Reference Sequence XM 001435) were cultured in RPMI1640 medium supplemented with 25 mM HEPES, 10% fetal calf serum and 1-2 mM glutamine. The membrane preparation was performed as described in section 1. […] Non-specific binding was defined with 1 μM methiothepin. The binding reaction was carried out for 3.5 h at room temperature. During the incubation, the plates were shaken on a plate shaker at 100 rpm and terminated by filtration on Packard Unifilter GF/C (0.1% PEI) plates, followed by 2 wash cycles with ice-cold 50 mM Tris-HCl, 5 mM CaCl2.
# Data derived from liquid scintillation counting were analyzed by iterative non-linear regression analysis with the use of the Statistical Analysis System (SAS): a program similar to “LIGAND” as described by Munson and Rodbard (Anal. Biochem. 1980, 107, 220-239). Fitting was performed according to formulae described by Feldman (Anal. Biochem. 1972, 48, 317-338). IC50, nH and Ki values were expressed as geometrical mean.
# [1] = membranes of HEK293 cells expressing h-5-HT6 receptor, 1 nM [3H]-LSD, read-out: Ki (5HT6)
SMILES,pKi,pKi [1]
"Cc1ccc(S(=O)(=O)Nc2cccc(OC(F)F)c2)cc1N1CCNCC1 [Example 1, N-(3-Difluoromethoxy-phenyl)-4-methyl-3-piperazin-1-yl-benzenesulfonamide hydrochloride]",> 8.00,
"Cc1ccc(S(=O)(=O)Nc2ccccc2OC(F)F)cc1N1CCN(C)CC1 [Example 5, N-(2-Difluoromethoxy-phenyl)-4-methyl-3-(4-methyl-piperazin-1-yl)-benzenesulfonamide hydrochloride]",,> 7.30
"Cc1ccc(NS(=O)(=O)c2ccc(C)c(N3CCNCC3)c2)cc1OC(F)F [Example 6, N-(3-Difluoromethoxy-4-methyl-phenyl)-4-methyl-3-piperazin-1-yl-benzene-sulfonamide hydrochloride]",,> 7.30
"Cc1ccc(S(=O)(=O)Nc2ccc(OC(F)F)cc2)cc1N1CCNCC1 [Example 7, N-(4-Difluoromethoxy-phenyl)-4-methyl-3-piperazin-1-yl-benzenesulfonamide hydrochloride]",> 7.30,
"Cc1ccc(S(=O)(=O)Nc2cccc3c2OC(F)(F)O3)cc1N1CCNCC1 [Example 8, N-(2,2-Difluoro-benzo[1,3]dioxol-4-yl)-4-methyl-3-piperazin-1-yl-benzenesulfonamide hydrochloride]",,> 6.30
"Cc1ccc(S(=O)(=O)N(CC2CC2)c2ccccc2OC(F)F)cc1N1CCNCC1 [Example 9, N-Cyclopropylmethyl-N-(2-difluoromethoxy-phenyl)-4-methyl-3-piperazin-1-yl-benzenesulfonamide hydrochloride]",,> 6.30
"Cc1ccc(S(=O)(=O)N(CC2CC2)c2cccc(OC(F)F)c2)cc1N1CCNCC1 [Example 10, N-Cyclopropylmethyl-N-(3-difluoromethoxy-phenyl)-4-methyl-3-piperazin-1-yl-benzenesulfonamide hydrochloride]",,> 7.30
"CCCN(c1ccccc1OC(F)F)S(=O)(=O)c1ccc(C)c(N2CCNCC2)c1 [Example 11, N-(2-Difluoromethoxy-phenyl)-4-methyl-3-piperazin-1-yl-N-propyl-benzene-sulfonamide hydrochloride]",,> 6.30
"CCCN(c1cccc(OC(F)F)c1)S(=O)(=O)c1ccc(C)c(N2CCNCC2)c1 [Example 12, N-(3-Difluoromethoxy-phenyl)-4-methyl-3-piperazin-1-yl-N-propyl-benzenesulfonamide hydrochloride]",,> 7.30
"CCN(c1cccc(OC(F)F)c1)S(=O)(=O)c1ccc(C)c(N2CCNCC2)c1 [Example 13, N-(3-Difluoromethoxy-phenyl)-N-ethyl-4-methyl-3-piperazin-1-yl-benzene sulfonamide hydrochloride]",,> 7.30
"Cc1ccc(S(=O)(=O)N(C)c2cccc(OC(F)F)c2)cc1N1CCNCC1 [Example 14, N-(3-Difluoromethoxy-phenyl)-4,N-dimethyl-3-piperazin-1-yl-benzenesulfonamide hydrochloride]",,> 7.00
"CCN(c1ccccc1OC(F)F)S(=O)(=O)c1ccc(C)c(N2CCNCC2)c1 [Example 15, N-(2-Difluoromethoxy-phenyl)-N-ethyl-4-methyl-3-piperazin-1-yl-benzene sulfonamide hydrochloride]",,> 6.30
"Cc1ccc(S(=O)(=O)N(C)c2ccccc2OC(F)F)cc1N1CCNCC1 [Example 16, N-(2-Difluoromethoxy-phenyl)-N-methyl-4-methyl-3-piperazin-1-yl-benzene sulfonamide hydrochloride]",,> 6.30
"Cc1ccc(S(=O)(=O)Nc2ccccc2OC(F)F)cc1N1CCNCC1 [Example 17, N-(2-Difluoromethoxy-phenyl)-4-methyl-3-piperazin-1-yl-benzenesulfonamide hydrochloride]",> 8.00,
"COc1ccc(S(=O)(=O)Nc2ccc(C)c(OC(F)F)c2)cc1N1CCNCC1 [Example 18, N-(3-Difluoromethoxy-4-methyl-phenyl)-4-methoxy-3-piperazin-1-yl-benzene-sulfonamide hydrochloride]",,> 8.00
"COc1ccc(S(=O)(=O)Nc2cccc(OC(F)F)c2)cc1N1CCNCC1 [Example 24, N-(3-Difluoromethoxy-phenyl)-4-methoxy-3-piperazin-1-yl-benzenesulfonamide hydrochloride]",,> 8.00
"COc1ccc(NS(=O)(=O)c2ccc(OC)c(N3CCNCC3)c2)cc1OC(F)F [Example 25, N-(3-Difluoromethoxy-4-methoxy-phenyl)-4-methoxy-3-piperazin-1-yl-benzenesulfonamide hydrochloride]",,> 8.00
"COc1ccc(S(=O)(=O)Nc2ccccc2OC(F)F)cc1N1CCNCC1 [Example 26, N-(2-Difluoromethoxy-phenyl)-4-methoxy-3-piperazin-1-yl-benzenesulfonamide hydrochloride]",,> 8.00
"COc1ccc(S(=O)(=O)N(C)c2ccccc2OC(F)F)cc1N1CCNCC1 [Example 27, N-(2-Difluoromethoxy-phenyl)-4-methoxy-N-methyl-3-piperazin-1-yl-benzenesulfonamide hydrochloride]",,> 7.30
"COc1ccc(N(C)S(=O)(=O)c2ccc(OC)c(N3CCNCC3)c2)cc1OC(F)F [Example 28, N-(3-Difluoromethoxy-4-methoxy-phenyl)-4-methoxy-N-methyl-3-piperazin-1-yl-benzenesulfonamide hydrochloride]",,> 7.30
"CCN(c1cccc(OC(F)F)c1)S(=O)(=O)c1ccc(OC)c(N2CCNCC2)c1 [Example 29, N-(3-Difluoromethoxy-phenyl)-N-ethyl-4-methoxy-3-piperazin-1-yl-benzenesulfonamide hydrochloride]",,> 8.00
"CCN(c1ccc(OC)c(OC(F)F)c1)S(=O)(=O)c1ccc(OC)c(N2CCNCC2)c1 [Example 30, N-(3-Difluoromethoxy-4-methoxy-phenyl)-N-ethyl-4-methoxy-3-piperazin-1-yl-benzenesulfonamide hydrochloride]",,> 8.00
"CCN(c1ccccc1OC(F)F)S(=O)(=O)c1ccc(OC)c(N2CCNCC2)c1 [Example 31, N-(2-Difluoromethoxy-phenyl)-N-ethyl-4-methoxy-3-piperazin-1-yl-benzenesulfonamide hydrochloride]",,> 7.30
"COc1ccc(S(=O)(=O)N(C)c2cccc(OC(F)F)c2)cc1N1CCNCC1 [Example 32, N-(3-Difluoromethoxy-phenyl)-4-methoxy-N-methyl-3-piperazin-1-yl-benzenesulfonamide hydrochloride]",,> 8.00
"CCCN(c1ccc(OC)c(OC(F)F)c1)S(=O)(=O)c1ccc(OC)c(N2CCNCC2)c1 [Example 33, N-(3-Difluoromethoxy-4-methoxy-phenyl)-4-methoxy-3-piperazin-1-yl-N-propyl-benzenesulfonamide hydrochloride]",,> 8.00
"CCCN(c1cccc(OC(F)F)c1)S(=O)(=O)c1ccc(OC)c(N2CCNCC2)c1 [Example 34, N-(3-Difluoromethoxy-phenyl)-4-methoxy-3-piperazin-1-yl-N-propyl-benzenesulfonamide hydrochloride]",,> 8.00
"COc1ccc(S(=O)(=O)Nc2cccc(OC(F)F)c2)cc1N1CCN(C)CC1 [Example 35, N-(3-Difluoromethoxy-phenyl)-4-methoxy-3-(4-methyl-piperazin-1-yl)-benzenesulfonamide hydrochloride]",,> 8.00
"CCCN(c1ccccc1OC(F)F)S(=O)(=O)c1ccc(OC)c(N2CCNCC2)c1 [Example 36, N-(2-Difluoromethoxy-phenyl)-4-methoxy-3-piperazin-1-yl-N-propyl-benzenesulfonamide hydrochloride]",,> 8.00
